Patent publication US8642801B2 (BHI Limited Partnership, priority 2003, dated 2014)

Legend:
[1] = tested on: Aβ40 and Aβ42 peptides in plasma and brain of TgCRND8 mice; experiment: Long term treatment in adult transgenic CRND8 mice overexpressing βAPP: Aβ levels in plasma and brain by ELISA; assay type: in vivo, Mouse
Description: Transgenic mice, TgCRND8, as those used in the short term treatment, overexpress a human APP gene with the Swedish and Indiana mutations leading to the production of high levels of the amyloid peptides and to the development of an early-onset, aggressive development of brain amyloidosis. The high levels of Aβ peptides and the relative overabundance of Aβ42 compared to Aβ40 are believed to be associated with the severe and early degenerative pathology observed. The pattern of amyloid deposition, presence of dystrophic neuritis, and cognitive deficit has been well documented in this transgenic mouse line. The levels of Aβ peptides in the brain of these mice increase dramatically as the animals age. While the total amyloid peptide levels increase from ˜1.6×10^5 pg/g of brain to ˜3.8×10^6 between 9 and 17 weeks of age.
The long-term therapeutic effects of compounds of the present invention on cerebral amyloid deposition and β-amyloid (Aβ) levels in the plasma and in the brains of transgenic mice, TgCRND8, expressing the human amyloid precursor protein (hAPP) was studied. These compounds were administered over an 8 or 16 week period at the end of which the levels of Aβ peptides in the plasma and brain of TgCRND8 animals were determined. The goal of this study was to evaluate the efficacy of the compounds at modulating the progression of the amyloidogenic process in the brain and in the plasma of a transgenic mouse model of Alzheimer's disease (AD)
The mice used in the study consisted of animals bearing one copy of the hAPP gene (+/−) from the 2nd and 3rd generation progenies (N2 and N3) derived from backcrosses from TgCRND8.FVB(N2)AJ(N3) with B6AF1/J hybrid animals. N1=TgCRND8.FVB(N2)AJ(N3)×B6AF1/J N2=TgCRND8.FVB(N2)AJ(N3).B6AF1/J(N1)×B6AF1/J N3=TgCRND8.FVB(N2)AJ(N3).B6AF1/J(N2)×B6AF1/a
(§1) The following abbreviations are used to designate these animals in the present study: TgCRND8.B6AF1/J(N2); TgCRND8.B6AF1/J(N3). Male and female transgenic mice were given daily subcutaneous (compound BX) or oral (compounds BW and BZ) administrations of the appropriate compounds for 8 or 16 weeks.
Baseline animals consisted of 9±1 week old naive TgCRND8.B6AF1/J animals from the 2nd and 3rd generations. These mice were used to determine the extent of cerebral amyloid deposits and Aβ levels in the plasma and brain of naive transgenic animals at the initiation of treatment.
(§2) Starting at 9 weeks of age (±1 week) animals received daily administration of their respective treatment for a period of 8 or 16 weeks, at a dose of 30 or 100 mg/kg at 10 ml/kg. The route of administration was subcutaneous for water-soluble compounds (Compound BX) and oral for compounds solubilized in methylcellulose 1% (MC 1%) (Compounds BW and BZ). At the end of the treatment periods, plasma and perfused brains were collected for quantification of Aβ levels.
Animal health was monitored, samples were collected and Aβ levels were measured as described above in the short term treatment study. Compounds were scored based on their ability to modulate levels of Aβ peptides in the plasma and the cerebral soluble/insoluble levels in the brain. Levels of Aβ observed in the plasma and brain of treated animals were compared to that of vehicle-treated (water) or methylcellulose-treated control groups and ranked according to the strength of the pharmacological effect. Increases in the levels of Aβ peptides are indicated using “+” symbols, while decreases in the levels of Aβ peptides are indicated using “−” symbols. The strongest effects are recorded as “+++” or “−−−” while the weakest are shown as “+” or “−”.
Specifically, increases in the levels of Aβ (relative to vehicle treated control) of 5 to 14% are scored as “+”; increases of 15 to 29% are scored as “++”; and increases of 30% or higher are scored as “+++”. Decreases in the levels of Aβ of 5 to 14% are scored as “−”; decreases of 15 to 29% are scored as “−−”; and decreases of 30% or more are scored as “−−−”. […]

[2] = tested on: amyloid plaques in the brains of TgCRND8 mice; experiment: Histological ThioS (thioflavin S) study of brain plaques, long term treatment of TgCRND8 mice; assay type: in vivo, Mouse; conditions: 30 mg/kg; preliminary histochemical experiments
Procedure: as §1, §2
For the ThioS studies, the plaques in the brains of the mice were quantified as follows. Mice were transcardially perfused with saline solution. […] Image analysis to quantify the number of plaques and the area occupied by these plaques was performed using Image Pro Plus software (Media Cybernetics, MD, USA). […]
Specifically, increases in the areas and numbers of plaques (relative to vehicle treated control) of 10 to 19.99% are scored as “+”. Decreases in the areas and numbers of plaques of 10 to 19.99% are scored as “−”. Additionally, changes of 9.99% or less in either direction are scored as “0”.

Row | SMILES | brain and plasma levels of Aβ ([1]; at 8 weeks) | plasma levels of Aβ ([1]; at 16 weeks) | amount of Aβ in the brain ([1]; at both 8 and 16 weeks) | area occupied by the plaques (ThioS staining of brain sections) [2] | number of plaques (ThioS staining of brain sections) [2]
1 | O=S(=O)(O)CCCNC12CC3CC(CC(C3)C1)C2 [BW, 3-(1-adamantyl)amino-1-propanesulfonic acid] | dramatic decrease | dramatic decrease | – | – | –
2 | CC(C)(C)NCCCS(=O)(=O)O [BX, 3-(t-butyl)amino-1-propanesulfonic acid] | – | – | dramatic decrease | decreased | decreased
